Among the data in ChEMBL document CHEMBL3507680, “University of Dundee, Gates Library screen for HepG2 cell viability” are cytotoxicity values, retold here.

The nature of this series: Human HepG2 cell viability assay in 384 well format. Set-up: dose 125 nL, time 70.5 hour; cytotoxicity at 70.5 h: concentration not given beside the values. Conditions: HepG2 cells, read-out: Inhibition. The series is classed as toxicity, cell-based.
For the compound `Cc1cc2n(n1)[C@@H](C(F)(F)F)C[C@@H](C1CCCN(C(=O)C(C)C)C1)N2` (stereo not given in full), the cytotoxicity at 70.5 h is -3.95%.
Regarding `Cc1nc[nH]c1CN(Cc1ccccc1)Cc1nccs1`, the cytotoxicity at 70.5 h was -6.42%.
On to `O=C(Nc1ccc2ncsc2c1)N1CCCN([C@H]2COC[C@@H]2O)CC1`, for which the cytotoxicity at 70.5 h stood at 0.731%.
The figure for `Cc1cc2nc(CO[C@H]3CN(C)C[C@H]3F)[nH]c2cc1C` is -0.513%; for `CCc1cc(N2CCC(NCc3ccc(C)o3)CC2)ncn1` it is 9.42%.
The figure for `COc1ccc(NC(=O)c2ccccc2NCc2ncnn2C)cc1` is -19.9%.
As to `CCc1cnc(N2C[C@H]3C[C@H](C(=O)N4CCOCC4)[C@@H](C2)O3)nc1`, the cytotoxicity at 70.5 h is -6.74%.
To `CC(C)CCn1[nH]c(CNc2ccccc2)nc1=O` belongs -10.8%; to `Cc1nonc1C1CCCN1C(=O)CCc1cc2n(n1)CCCNC2` (stereo not given), -7.72%.
To `CCN(C(=O)CN1CCCC1Cc1ccccc1)c1ccccc1` (stereo not given) belongs 8.48%.
To `COCC(=O)NCc1cc(=O)n2c(n1)CN(CC1CC1)CCC2` belongs 0.0162%; to `Cc1ccoc1-c1nnc(CN2CCn3c(nnc3C3CC3)C2)o1`, 31.2%.
On to `CN1CCCN(C(=O)NCc2ccccc2Cn2cncn2)CC1`, for which the cytotoxicity at 70.5 h was -2.94%.
As to `Nc1nccnc1C1CN(C(=O)c2ccnnc2)CCO1` (stereo not given), the cytotoxicity at 70.5 h is -6.55%.
The figure for `CN(C)c1nccc(N(C)Cc2nc3ccccc3n2C)n1` is 10.9%; for `O=C(NCCc1c[nH]c2ccc(F)cc12)C1(n2cnnn2)CCCCC1` it is -22.2%.
The figure for `CC(=O)Nc1sccc1C(=O)C(C)(C)C` is 16.1%; for `O=C1CC[C@@H](CN(Cc2ccncc2)Cc2nc(CC3CC3)no2)N1` it is -5.49%; for `Cc1cc(=O)n(C)cc1NC(=O)Cc1cccc(F)c1` it is -2.92%.
The figure for `Cc1nc(CNC(=O)Nc2cc(F)ccc2OC(F)F)no1` is -3.38%.
Turning to `CN(CC1(CO)CCC1)C(=O)C1CCC(=O)N(Cc2ccc(Cl)cc2)C1` (stereo not given), the cytotoxicity at 70.5 h is -1.24%.
To `CCc1ncc(C(=O)N(C)C2Cc3ccccc3C2)cn1` belongs 2.28%.
Turning to `Cc1cc(NCC2CCN(c3ccccc3)C2)n2ncnc2n1` (stereo not given), the cytotoxicity at 70.5 h is -1.33%.
The figure for `CCn1ccnc1CN1CCN(CCc2ccncc2)CC1C` (stereo not given) is 7.35%; for `CN(CCn1ccc2ccccc21)C(=O)Cc1nnn[nH]1` it is 17.9%.
`CCOCCNC(=O)c1cc(Br)c2c(c1)OCCO2`: the cytotoxicity at 70.5 h was -10.7%.
As for `CN(C)CCN1CCC2(CC1)CN(c1cccnc1)C(=O)CO2`, the cytotoxicity at 70.5 h is -13.5%.
To `CN1CC(=O)N(c2ccsc2)CC12CCN(C(=O)c1ccccc1)C2` (stereo not given) belongs -12.7%; to `Cc1nc(C(=O)N2CCN(S(C)(=O)=O)CC2)c(-c2ccccc2Cl)s1`, 16%.
Consider `COC(=O)C1CCN(C(=O)c2ccc(N(C)S(C)(=O)=O)c(C)c2)CC1`, for which the cytotoxicity at 70.5 h was -10.1%.
To `CCCC(NC(=O)c1occc1C)c1nnn[nH]1` (stereo not given) belongs -1.34%; to `CCCN1CC(C(=O)Nc2ccccn2)CC1=O` (stereo not given), -5.78%; to `O=C1C[C@H]2[C@@H](CCN2C(=O)c2ccc[nH]2)N1CCN1CCCC1`, -2.17%.
The figure for `O=C1c2ncccc2C(CCO)N1Cc1ccccc1` (stereo not given) is -3.47%; for `Cc1nccn1CCC1CCNCC1` it is -4.48%; for `Cc1cnn(CC2CCCN2CC(=O)N(C)CCC#N)c1` (stereo not given) it is -7.49%.
To `Cn1ccc(CN2CCC(CC(=O)N3CCCC3)CC2)cc1=O` belongs -6.85%; to `O=C(Cc1ccccn1)N1CCC2(CC1)CN(c1ncccn1)CCO2`, -10.3%; to `CC(C)(C(N)=O)N1CCN(C(=O)c2ccn(-c3cccc(Cl)c3)n2)CC1`, -0.38%.
In the case of `COc1cc(Cl)cc(C(=O)N2CCC3(CC2)CNC(=O)C3)c1`, the cytotoxicity at 70.5 h is -15.2%.
As for `N#Cc1cccc(CNc2ccc(F)cc2OCCO)c1`, the cytotoxicity at 70.5 h was -6.47%.
The figure for `c1cc(CCN2CCCC2CN2CCCC2)ccn1` (stereo not given) is 30%.
The figure for `CCOc1ccc(NC(C)C(=O)Nc2cc(C)no2)cc1` (stereo not given) is -5.28%.
To `O=C(Cc1csc(-c2ccco2)n1)N1CCN(c2nccs2)CC1` belongs -5.89%; to `CC(=O)N1CCc2nnc(C3CCCN3CC3CCCCC3)n2CC1` (stereo not given), -6.06%.
Turning to `COc1cc(CCNC(=O)NCCC2CCCO2)ccc1C` (stereo not given), the cytotoxicity at 70.5 h was -9.73%.
`O=C(NCC1Cn2nnc(-c3ccoc3)c2CO1)c1ccc[nH]1` (stereo not given): the cytotoxicity at 70.5 h is -9.78%.
To `O=C(NCc1cccc(-n2cncn2)c1)NCC(C1CC1)C1CC1` belongs -5.02%; to `CC(C)CCN1CCN(C(=O)c2cnccn2)CC1`, 18.6%.
Consider `CCN1Cc2c(C(=O)NC)ncn2-c2ccccc2S1(=O)=O`, for which the cytotoxicity at 70.5 h was -6.74%.
To `Cc1cnn(-c2cncc(C(N)=O)c2)c1` belongs -5.78%; to `CNC(=O)[C@@H]1C[C@@H](N)CN1c1nnc(-c2ccccc2)s1`, -4.95%; to `CCOC(=O)N1CCN(C(=O)c2cc(OCC)c3ccoc3c2)CC1`, 50%.
The figure for `CCNc1nnc(CCn2nc(C)c(Br)c2C)s1` is -7.99%; for `Cc1cccc(NC(=O)CCC(=O)NCC(=O)c2ccccc2F)c1` it is 2.08%.
For the compound `CCS(=O)(=O)NCCNC(=O)c1cnc(-c2ccccc2)nc1`, the cytotoxicity at 70.5 h is -8.98%.
To `c1ccc(Cc2noc(-c3ccc(NCC4COCCO4)nc3)n2)cc1` (stereo not given) belongs -5.85%; to `COc1cc(CCC(=O)N2CCC(c3cc4nccnc4[nH]3)CC2)on1`, 28.5%; to `Cc1nnc2n1CCN(C(C(N)=O)c1ccc(F)cc1)C2` (stereo not given), -16.8%.
The figure for `c1ccc(-c2nc3c(c(NCCn4ccnn4)n2)CCNCC3)nc1` is -6.02%.
The figure for `CCCN(CCO)C(=O)C1CCC(=O)N(CCc2ccc(Cl)cc2)C1` (stereo not given) is -4.6%; for `c1ccc(CN2CCC3(CC2)Nc2ccccc2CO3)cc1` it is -6.59%; for `Cc1cc(F)ccc1-c1cc(NCCO)nc2[nH]ccc12` it is 0.963%.
In the case of `CC(C)c1ccc(O)c(C(=O)NCc2nncn2C)c1`, the cytotoxicity at 70.5 h was -6.12%.
The figure for `COc1cc(N2CCCC(c3nccn3Cc3cscn3)C2)nc(N)n1` (stereo not given) is -8.38%; for `O=C(NCC1CC2(CO1)CN(c1ncccn1)C2)C1CCC1` (stereo not given) it is 2.73%; for `COc1ncc(NCc2ccc(F)cc2)cc1C(N)=O` it is -6.54%.
The figure for `O=C(O)[C@]12CCCN(Cc3ccco3)C[C@H]1CN(c1ncccn1)C2` is -12.1%.
`CCC(NC(=O)NCc1cccc(N(C)C)n1)c1ccccc1OC` (stereo not given): the cytotoxicity at 70.5 h was -7.5%.
As to `Cc1cc(C)c(CNC(=O)N2CCOC(c3ccccc3)C2)c(=O)[nH]1` (stereo not given), the cytotoxicity at 70.5 h was -8.25%.
The figure for `COc1cccc(COCC(=O)N2CCCC(n3ccnc3)C2)c1` (stereo not given) is -11.9%.
To `CCc1nccn1C1CCCN(C(=O)c2ccn(-c3ccccc3)n2)C1` (stereo not given) belongs -1.19%; to `CCn1c(CN(C)C)nnc1C1CCN(Cc2ccccn2)CC1`, 20.6%.
`Cc1nn2cccnc2c1C(=O)N1CCCC(n2cccn2)C1` (stereo not given): the cytotoxicity at 70.5 h is 17.9%.
The figure for `Cc1ccc2c(c1)CN(C(=O)C1CCCCC1)C(CN(C)C)CO2` (stereo not given) is 0.565%.
To `CNc1nc(C(=O)N2CCCn3nc(C(=O)N4CCCC4)cc3C2)cs1` belongs -11.2%; to `Cn1ccnc1CN1CCN2C[C@H](OCc3cccnc3)C[C@H]2C1`, -2.68%; to `CCc1noc(CNc2ccc(F)cc2OCC2CC2)n1`, -7.55%.
The figure for `COCCn1cc2c(n1)C(CNCc1ccc(F)cc1)OCC2` (stereo not given) is 0.574%.
In the case of `CC(C)S(=O)(=O)N1C[C@@H](O)[C@H](N(C)Cc2ccc(F)cc2)C1`, the cytotoxicity at 70.5 h amounted to 0.65%.
The figure for `CC1(C)CC1(C(=O)N1CC(c2cccnc2)C1)c1ccccc1F` (stereo not given) is -7.64%; for `CS(=O)(=O)NC1CCN(C(=O)NCc2cc[nH]n2)CC1` it is -8.42%.
The figure for `Cc1cnn(CC2CCCCN2C(=O)c2ccc3nncn3c2)c1` (stereo not given) is -3.43%.
To `O=C(NCc1cccs1)c1[nH]nc2c1CS(=O)(=O)CC2` belongs -0.606%; to `Cc1nn(CC(=O)N2CCN(c3ccncc3)CC2)c(C)c1Cl`, 1.17%.
`CCc1nc(CN(C(C)=O)C2CCN(CCc3ccccn3)C2)no1` (stereo not given): the cytotoxicity at 70.5 h was -11.5%.
The figure for `O=C1CC(N(C(=O)c2csc(-c3ccccc3)n2)C2CC2)C(=O)N1` (stereo not given) is 10.8%; for `Cc1cn2nc(Sc3nnnn3C)sc2n1` it is -4.31%; for `CN(C)C(=O)N1CCC(c2nc3ccc(-c4ccccc4)cn3n2)CC1` it is -4.01%.
To `CCC[C@H]1CN(S(=O)(=O)c2ccc(CC)s2)C[C@@H]1N` belongs 18.1%; to `O=C(NCCn1ccnc1-c1cc2n(n1)CCNC2)c1ccc(F)cc1`, 2.16%.
To `Cn1ccnc1CN1CCCN(C(=O)COCC2CC2)CC1` belongs -3.74%; to `CN1CCCCC1CCC(=O)NCCSc1cnn[nH]1` (stereo not given), -2.59%; to `Cc1nc(C)c(C(C)NCc2cnc(N3CCOCC3)nc2)s1` (stereo not given), 19.8%.
Take `CC(Oc1ccccc1C(F)(F)F)C(=O)NS(=O)(=O)C(C)C` (stereo not given): the cytotoxicity at 70.5 h was determined as 1.98%.
To `CCOc1ccc(C(=O)CCC(=O)N(C)Cc2noc(C)n2)cc1C` belongs -6.08%; to `O=C(O)COc1ccc(Cl)cc1CN1CCC2(CCOCC2)CC1`, 2.03%; to `CCN1CCN(C(=O)NCc2ccccc2Cn2cncn2)CC1`, 19.4%.
To `O=C(NCc1ccccn1)c1cc2n(n1)CCNC2` belongs -3.91%; to `CCOc1ccc(C(F)(F)F)cc1NCc1nc(C)c(C)o1`, -2.62%.
